Results published in article PMC6257630, “Photoactivatable Cell-Selective Dinuclear trans-Diazidoplatinum(IV) Anticancer Prodrugs” (Inorganic Chemistry, 2018).
Read-outs that look alike come from different tables or passages of the source. Marks after values point to notes of the source that are not given here.

Columns and labels:
A2780 cells [1] = test: Cell cycle analysis by flow cytometry; assay type: cell-based, human; settings: A2780, dark; equipotent photocytotoxic IC50 concentration, 1 h exposure + 1 h dark
Procedure: (§1) All flow cytometry experiments were carried out using a Becton Dickinson FACScan flow cytometer in the School of Life Sciences at Warwick University. Typically, cells were seeded in 6-well plates using 1.5 × 10^6 cells/well. Experiments included 24 h of preincubation in drug-free media at 310 K in a CO2 humidified atmosphere, followed by 1 h of drug exposure under the same conditions. After this, samples were irradiated for 1 h. For comparison, the dark plates were kept in the incubator for another 1 h. Supernatants were removed, cells were washed with PBS. Samples were then collected after trypsinization, washed with PBS, and stained in the dark with a mixture of propidium iodide and RNase. After 30 min of staining, the cell samples were washed and set up for flow cytometry reading on the red channel FL-2.
(§2) The effect of complexes 3 and 4 in the presence of light on the progression of the cell cycle was studied. Cells were exposed to prodrugs at equipotent photocytotoxic IC50 concentrations for 1 h in the dark and then irradiated for 1 h (465 nm, 4.8 mW/cm^2, 1 h). After 24 h of recovery, cells were stained in the dark with propidium iodide in the presence of RNase and then analyzed by flow cytometry.

OE19 cells = test: Cell cycle analysis by flow cytometry; assay type: cell-based, human; settings: OE19, dark; equipotent photocytotoxic IC50 concentration, 1 h exposure + 1 h dark
Procedure: as §1, §2

A2780cis cells = test: Cell cycle analysis by flow cytometry; assay type: cell-based, human; settings: dark, equipotent photocytotoxic IC50 concentration, 1 h exposure + 1 h dark
Procedure: as §1, §2

[2] = tested on: OE19 esophageal adenocarcinoma cells; test: Photo/dark cytotoxicity (SRB assay); settings: 1 h incubation, 24 h recovery
[3] = tested on: MRC5 normal fibroblast cells; test: Photo/dark cytotoxicity (SRB assay)
[4] = tested on: A2780 ovarian carcinoma cells; settings: for IC50: 1 h incubation, 24 h recovery
[5] = tested on: cisplatin-resistant A2780cis ovarian carcinoma cells; settings: 1 h incubation, 24 h recovery
[6] = tested on: cisplatin-resistant A2780cis ovarian carcinoma cells; test: cells; settings: Homo sapiens, light or radiation study
[7] = tested on: A2780 ovarian carcinoma cells; test: cells; settings: Homo sapiens, A2780, light or radiation study
[8] = tested on: plasmid pUC19 linearized by EcoRI; test: Formation of DNA interstrand cross-links; assay type: biochemical; settings: irradiated with blue light 1 h + 23 h dark, 10 mM NaClO4, 310 K; rb 0.003 and 0.0006 (FM-190) or 0.00015 and 0.0003 (1, 4)
Procedure: Solutions of the plasmid pUC19 linearized by EcoRI (50 μg/mL) were incubated with the Pt complex under irradiation conditions (for 1 h and subsequently incubated in the dark for an additional 23 h) at various ri values in NaClO4 (10 mM) at 310 K. Autoradiograms were recorded of denaturing 1% agarose gel of linearized DNA, which was 3′-end-labeled and nonmodified or modified by FM-190, 1, and 4 photoactivated by visible light.
Therefore, we investigated the capability of irradiated 1 and 4 to form DNA interstrand cross-links as well. Plasmid pUC19 linearized by EcoRI (50 μg mL^–1) and the Pt complex were irradiated with blue light for 1 h and subsequently incubated in the dark for an additional 23 h in NaClO4 (10 mM) at 310 K. The plasmid was modified to the extent corresponding to the rb values of 0.003 and 0.0006 (in the case of FM-190) or 0.00015 and 0.0003 (in the case of 1 and 4) and analyzed by agarose gel electrophoresis under denaturing conditions (Figure 5C). Interstrand cross-linked DNA appears as the top band (marked as ICLs), migrating on the gel more slowly than single-stranded DNA (contained in the bottom bands and marked as ss). […] It is, therefore, reasonable to envisage that the treatment of DNA by irradiated dinuclear 1 or 4 results in the formation of trans GG interstrand DNA cross-links as in the case of the treatment with mononuclear complex FM-190.

parental A2780 cells = tested on: parental A2780 cells; design: method as in PMID 20677309; settings: cited from earlier work
[9] = tested on: negatively supercoiled pSP73KB plasmid; design: method as in PMID 22420335; settings: photoactivated, identical conditions; cited from earlier work
A2780 cells [10] = test: Pt accumulation in cancer cells (ICP-MS); assay type: cell-based, human; settings: equipotent IC50 concentration, 1 h, in the dark
[11] = MRC5 normal cells, dark, 1 h incubation, 1 h dark, 24 h recovery
[12] = MRC5 normal cells, irrad, 1 h incubation, 1 h irradiation (465 nm), 24 h recovery
[13] = A2780, irrad, 1 h irradiation (465 nm, 4.8 mW/cm^2)

For `[NH2][Pt]([NH2])([Cl])[Cl]` [CDDP, cisplatin], the “% Cell Population, G1 phase” value (A2780 cells [1]) was 32.1±0.5%, the “% Cell Population, G2/M phase” value (A2780 cells [1]) was 67.4±0.9% and the “% Cell Population, S phase” value (A2780 cells [1]) was 0.4±0.5%. The “% Cell Population, G1 phase” value (OE19 cells) was 36.3±1.2%, the “% Cell Population, G2/M phase” value (OE19 cells) was 45.5±0.9% and the “% Cell Population, S phase” value (OE19 cells) was 18.2±0.3%. For the same compound, the “% Cell Population, G1 phase” value (A2780cis cells) was 64.2±2.8%, the “% Cell Population, G2/M phase” value (A2780cis cells) was 22.0±0.4% and the “% Cell Population, S phase” value (A2780cis cells) was 13.8±2.4%. The IC50 ([2]; OE19, dark, 1 h dark) was greater than 100 µM, the IC50 ([2]; OE19, irrad, 1 h irradiation (465 nm, 4.8 mW/cm^2)) was greater than 100 µM and the IC50 [3, 11] was greater than 100 µM. The IC50 [3, 12] was greater than 100 µM, the IC50 ([4]; A2780, dark, 1 h dark) was greater than 100 µM and the IC50 [4, 13] was greater than 100 µM. For the same compound, the IC50 ([5]; dark, 1 h dark) was greater than 100 µM and the IC50 ([5]; irrad, 1 h irradiation (465 nm, 4.8 mW/cm^2)) was greater than 100 µM.

Work on `CN(C)CCCN1c2ccccc2Sc2ccc(Cl)cc21` [CPZ, chlorpromazine] yielded an IC50 [6] of 6 ± 0.3 µM, an IC50 ([3]; Homo sapiens, MRC5) greater than 100 µM and an IC50 ([3]; Homo sapiens, MRC5, light or radiation study) greater than 50 µM. It also gave an IC50 [7] of 6 ± 0.3 µM.

In the case of “trans,trans,trans-[Pt(N3)2(OH)2(py)2] [FM-190]”, the “frequencies of interstrand cross-linking” value [8] is reported as 12.5 ± 0.5, the IC50 [3, 11] is reported as greater than 100 µM and the IC50 [3, 12] is reported as greater than 100 µM. For the same compound, the “PI (photocytotoxicity index)” value ([4]; A2780, dark vs irradiated (465 nm)) was greater than 14.0, the IC50 ([4]; A2780, dark, 1 h dark) was greater than 100 µM and the IC50 [4, 13] was 7.1 ± 0.4 µM. For the same compound, the “toxicity to parental A2780 compared with A2780cis” value (parental A2780 cells; irradiation with UVA (365 nm)) was 10 times, the IC50 (parental A2780 cells; parental A2780, irradiation with UVA (365 nm)) was 1400 nM and the DNA unwinding angle [9] was 28 ± 4 °. The platinum accumulation (A2780 cells [10]) was 0.8 ± 0.2 ^b ng/10^6 cells.
